{
  "source": "patent US8110681B2",
  "about": "“Compounds for the treatment of spinal muscular atrophy and other uses” (The United States of America as represented by the …, priority 2006, dated 2012)",
  "key": {"[1]": {"test_system": "SMN-containing gems in fibroblast cells from a type 1 SMA patient (3813 cells)", "assay": "Gem count by immunohistochemistry in type 1 SMA patient fibroblasts (3813 cells)", "type": "cell-based, human", "conditions": "48 hours", "from_the_text": "SMN protein can be found in punctate nuclear particles called “gems” (Liu and Dreyfuss, EMBO J. 15(14): 3555-3565 (1996)). In fibroblast cells derived from SMA patients, the number of gems corresponds to disease severity as follows: severe type 1 patients have approximately 5 gems per 100 nuclei; mild type 3 patients have 20-50 gems per 100 nuclei; normal individuals have approximately 100-150 gems per 100 nuclei (Coovert et al., Hum Mol Genet 6(8): 1205-1214 (1997), Young et al., Exp Cell Res 265(2): 252-261 (2001)).\nFollowing these methods, fibroblast cells from a type 1 SMA patient (3813 cells, Coriell Cell Repositories) were treated for 48 hours with the compounds indicated in Table 2 (reference number—structure correlation is provided in Table 1). The cells were then fixed and incubated with a monoclonal antibody against SMN (4B7, Wolstencroft et al., Hum Mol Genet 14:1199-1210 (2005)). A FITC-conjugated anti-mouse secondary antibody was used to visualize the labeled gems."}, "[2]": {"test_system": "luciferase reporter containing the UAG stop codon", "assay": "Translational read-through luciferase reporter assay, UAG stop codon", "type": "cell-based", "conditions": "read-out: MaxFold Increase", "from_the_text": "This assay is described in detail in WO 01/44516 A2. This is a cell-based luciferase reporter assay designed to detect translational read-through via insertion of a translational stop codon within the luciferase coding sequence. In the presence of compounds that promote read-through of translational stop codons, active luciferase is produced and detected via chemiluminescence. We have shown that indoprofen analogs are active in two versions of this assay—one containing a UGA stop codon and one containing a UAG stop codon. The data in the table is from the luciferase reporter containing the UAG stop codon. This is the first stop codon downstream of the improper splice junction between exons 6 and 8 in the human SMN2 transcript."}, "[3]": {"test_system": "SMN2-linked luciferase-reporter gene construct", "assay": "SMN splice reporter assay (SMN2-linked luciferase reporter, Example 10)", "type": "cell-based", "conditions": "for maximal fold induction: read-out: SMN Splice Reporter Assay (Example 10) Avg MaxFold Increase", "procedure,_shortened": "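Cervical carcinoma cells stably carrying an SMN2–luciferase splice reporter, in which luciferase is in frame only when SMN2 exon 7 is included, were treated with compound. Luciferase activity was read and expressed as fold increase over untreated transformed cells.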"}, "[4]": {"test_system": "human GLT-1/EAAT-2 promoter", "assay": "GLT-1/EAAT-2 promoter luciferase reporter assay in COS-7 cells", "type": "cell-based", "conditions": "Homo sapiens; COS-7 pE2P-GL3 (clone 4), 48 h, normalized to DMSO control; read-out: Max Fold-Induction", "experimental": "The astroglial glutamate transporter, GLT-1/EAAT-2, is responsible for the majority of glutamate transport in the brain and spinal cord. […] Results from each plate were normalized to the DMSO treated control wells and expressed as fold-induction. EC50 values were calculated using GraphPad Prism software."}, "[5]": {"assay": "Plasma and brain pharmacokinetics in mice", "type": "in vivo, FVB or CD-1 mice", "conditions": "5 mg/kg, single dose", "experimental": "Compounds were formulated in solution using the method of cosolvency as described by Lee et al., Int. J. Pharmaceutics, 253: 111-119 (2003). FVB or CD-1 mice, approximately 5 weeks old, were given a single dose of compound at the indicated concentration. Compounds were administered orally, with the exception of ALB-116638 and ALB-117573, which were administered IV. Three to five mice were euthanized at various times between 15 minutes and 24 hours after dosing and brain and plasma were harvested. Tissues were homogenized in acetonitrile and analyzed on an API 4000 LC/MS/MS system coupled with an Agilent 1100 series liquid chromatograph. All pharmacokinetic analyses were conducted using WinNonlin (Version 4.01; Pharsight, Palo Alto, Calif.) with the exception of brain/plasma ratios, which were calculated using Microsoft Excel 2000. AUC values are the area under the concentration-time curve from time zero to the last measured time point. The half life values are extrapolated from 3-4 time points taken at less than 4 hours after dosing."}, "[6]": {"test_system": "SMN", "assay": "Western blot of SMN in SMA type I fibroblasts (3813 cells)", "type": "cell-based, human", "conditions": "48 hours, DMSO = 1", "experimental": "Westerns blots were performed using the methods of Mattis et al., Hum Genet 120:589-601(2006)). SMA type I fibroblasts (3813 cells; Coriell Cell Repositories) were treated with compounds for 48 hours. Monoclonal anti-SMN antibody 4B7 (Wolstencroft et al., Hum Mol Genet 14:1199-1210 (2005)) was used to identify SMN. Actin was used as an internal normalization standard and detected with an anti-actin polyclonal rabbit antibody (Sigma-Aldrich). Tobramycin was used for the positive control compound treatment. DMSO is the untreated negative control. Values are presented as the ratio of the signals obtained for SMN and Actin."}, "[7]": {"conditions": "SMN2-linked luciferase reporter, average"}, "[8]": {"conditions": "SMN2-linked luciferase reporter, average maximum fold increase"}, "[9]": {"conditions": "maximum fold increase of reporter signal, average"}, "[10]": {"conditions": "mouse, brain, oral, read-out: Brain T½ (converted)"}},
  "note": "pEC50: −log10 of the molar value. Where two headings read alike, the source gives them in different places.",
  "data": [
    {"smiles": "CC(C)c1ccc(N2Cc3ccc(OC(F)F)cc3C2=O)cc1", "note": "[ALB-116244]", "values": [
      {"measurement": "Number of gems per 100 nuclei, Treated Cells", "setting": "[1]; 0.1 μM", "result": 44, "unit": "gems per 100 nuclei"},
      {"measurement": "maximal fold induction", "setting": "[2]", "result": 2.8},
      {"measurement": "pEC50", "setting": "[3]; [7]", "result": 6.22},
      {"measurement": "maximal fold induction", "setting": "[3]; [8]", "result": 1.57}
    ]},
    {"smiles": "CC(C)c1ccc(N2Cc3ccc(N(C)C)cc3C2=O)cc1", "note": "[ALB-115806]", "values": [
      {"measurement": "Number of gems per 100 nuclei, Treated Cells", "setting": "[1]; 0.4 μM", "result": 8, "unit": "gems per 100 nuclei"},
      {"measurement": "maximal fold induction", "setting": "[2]", "result": 2},
      {"measurement": "pEC50", "setting": "[3]; [7]", "result": 7.39},
      {"measurement": "maximal fold induction", "setting": "[3]; [9]", "result": 1.47},
      {"measurement": "maximal fold induction", "setting": "[4]", "result": 0.87}
    ]},
    {"smiles": "Br.COCC(C)c1ccc(N2Cc3ccc(C)cc3C2=O)cc1", "note": "(stereo not drawn) [ALB-113967]", "values": [
      {"measurement": "Brain AUC", "setting": "[5]; oral", "result": 170.5, "unit": "ng·h/g"},
      {"measurement": "Kp", "setting": "[5]; mouse, brain and plasma, oral, read-out: Brain/Plasma Ratio", "result": 0.29},
      {"measurement": "half-life", "setting": "[5]; [10]", "result": 1.1, "unit": "h"},
      {"measurement": "AUC", "setting": "[5]; mouse, plasma, oral", "result": 595, "unit": "ng·h/mL"},
      {"measurement": "half-life", "setting": "[5]; mouse, plasma, oral, read-out: Plasma T½ (converted)", "result": 1.5, "unit": "h"},
      {"measurement": "maximal fold induction", "setting": "[2]", "result": 2.6},
      {"measurement": "pEC50", "setting": "[3]; [7]", "result": 6.80},
      {"measurement": "maximal fold induction", "setting": "[3]; [9]", "result": 1.54}
    ]},
    {"smiles": "CC(C)c1ccc(N2Cc3ccc([N+](=O)[O-])cc3C2=O)cc1", "note": "[Example 6, 2-(4-isopropylphenyl)-6-nitroisoindolin-1-one]", "values": [
      {"measurement": "melting point", "result": "225 to 227", "unit": "°C"}
    ]},
    {"smiles": "COCc1ccc2c(c1)C(=O)N(c1ccc(C(C)C)cc1)C2", "note": "[ALB-116935]", "values": [
      {"measurement": "Brain AUC", "setting": "[5]; oral", "result": 338.1, "unit": "ng·h/g"},
      {"measurement": "half-life", "setting": "[5]; [10]", "result": 9.4, "unit": "h"},
      {"measurement": "maximal fold induction", "setting": "[2]", "result": 1.9},
      {"measurement": "pEC50", "setting": "[3]; [7]", "result": 7.11},
      {"measurement": "maximal fold induction", "setting": "[3]; [9]", "result": 1.52}
    ]},
    {"smiles": "COCC(C)c1ccc(N2Cc3ccc(OC)cc3C2=O)cc1", "note": "(stereo not drawn) [Example 4, 6-methoxy-2-(4-(1-methoxypropan-2-yl)phenyl)isoindolin-1-one]", "values": [
      {"measurement": "melting point", "result": "116 to 118", "unit": "°C"}
    ]},
    {"smiles": "CNc1ccc2c(c1)C(=O)N(c1ccc(C(C)C)cc1)C2", "note": "[ALB-117046]", "values": [
      {"measurement": "maximal fold induction", "setting": "[2]", "result": 2.9},
      {"measurement": "pEC50", "setting": "[3]; [7]", "result": 7.05},
      {"measurement": "maximal fold induction", "setting": "[3]; [9]", "result": 1.44}
    ]},
    {"smiles": "NC[C@H]1O[C@H](O[C@H]2[C@H](O)[C@@H](O[C@H]3O[C@H](CO)[C@@H](O)[C@H](N)[C@H]3O)[C@H](N)C[C@@H]2N)[C@H](N)C[C@@H]1O", "note": "[Tobramycin, reference compound]", "values": [
      {"measurement": "SMN:Actin Ratio", "setting": "[6]; 320 uM, positive control", "result": 1.5}
    ]},
    {"smiles": "CC(C)c1ccc(N2Cc3ccc(NS(C)(=O)=O)cc3C2=O)cc1", "note": "[ALB-116486]", "values": [
      {"measurement": "maximal fold induction", "setting": "[2]", "result": 2.4},
      {"measurement": "pEC50", "setting": "[3]; [7]", "result": 6.12},
      {"measurement": "maximal fold induction", "setting": "[3]; [8]", "result": 1.49},
      {"measurement": "maximal fold induction", "setting": "[4]", "result": 1.17}
    ]},
    {"smiles": "COc1ccc2c(c1)C(=O)N(c1ccc(C(C)C)cc1)C2", "note": "[ALB-115069]", "values": [
      {"measurement": "Number of gems per 100 nuclei, Treated Cells", "setting": "[1]; 1 μM", "result": 45.25, "unit": "gems per 100 nuclei"},
      {"measurement": "pEC50", "setting": "[3]; [7]", "result": 7.09},
      {"measurement": "maximal fold induction", "setting": "[3]; [9]", "result": 1.5},
      {"measurement": "SMN:Actin Ratio", "setting": "[6]; 0.1 uM", "result": 4.3},
      {"measurement": "SMN:Actin Ratio", "setting": "[6]; 1 uM", "result": 5.7}
    ]},
    {"smiles": "CC(C)c1ccc(N2Cc3cc(Cl)ccc3C2=O)cc1", "note": "[ALB-116932]", "values": [
      {"measurement": "maximal fold induction", "setting": "[2]", "result": 2.4},
      {"measurement": "pEC50", "setting": "[3]; [7]", "result": 7.09},
      {"measurement": "maximal fold induction", "setting": "[3]; [9]", "result": 1.45}
    ]},
    {"smiles": "CCOc1ccc2c(c1)C(=O)N(c1ccc(C(C)C)cc1)C2", "note": "[ALB-116074]", "values": [
      {"measurement": "maximal fold induction", "setting": "[2]", "result": 2.9},
      {"measurement": "pEC50", "setting": "[3]; [7]", "result": 6.51},
      {"measurement": "maximal fold induction", "setting": "[3]; [9]", "result": 1.51}
    ]},
    {"smiles": "CC(C)c1ccc(N2Cc3ccc(C(F)(F)F)cc3C2=O)cc1", "note": "[ALB-117902]", "values": [
      {"measurement": "maximal fold induction", "setting": "[2]", "result": 2},
      {"measurement": "pEC50", "setting": "[3]; [7]", "result": 5.96},
      {"measurement": "maximal fold induction", "setting": "[3]; [9]", "result": 1.57}
    ]},
    {"smiles": "CC(C)c1ccc(N2Cc3ccc(NC(N)=O)cc3C2=O)cc1", "note": "[ALB-117573]", "values": [
      {"measurement": "Brain AUC", "setting": "[5]; IV", "result": 64.5, "unit": "ng·h/g"},
      {"measurement": "half-life", "setting": "[5]; mouse, brain, IV, read-out: Brain T½ (converted)", "result": 7.4, "unit": "h"},
      {"measurement": "maximal fold induction", "setting": "[2]", "result": 4.4},
      {"measurement": "pEC50", "setting": "[3]; [7]", "result": 6.46},
      {"measurement": "maximal fold induction", "setting": "[3]; [8]", "result": 1.67}
    ]}
  ]
}
